# Measured values published in US10385022B2, “3-amino-pyridines as GPBAR1 agonists” (HOFFMANN-LA ROCHE INC., priority 2011, dated 2019).
# Target: human GPBAR1 receptor (Homo sapiens (Human), UniProt Q8TDU6)
# Test: functional cAMP assay in CHO-dhfr(minus) cells expressing human GPBAR1 receptors
# Assay type: cell-based
# Settings: CHO-dhfr(minus) cells expressing human GPBAR1, 30 min at 30° C.
# Procedure, shortened: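 Functional cAMP responses in a human GPBAR1-transfected CHO-dhfr- clone, picked using lithocholic acid as agonist, gave the EC50 values. Parallel testing in untransfected CHO cells served as a specificity control.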
# human GPBAR1 receptor, sequence (Q8TDU6 whole entry): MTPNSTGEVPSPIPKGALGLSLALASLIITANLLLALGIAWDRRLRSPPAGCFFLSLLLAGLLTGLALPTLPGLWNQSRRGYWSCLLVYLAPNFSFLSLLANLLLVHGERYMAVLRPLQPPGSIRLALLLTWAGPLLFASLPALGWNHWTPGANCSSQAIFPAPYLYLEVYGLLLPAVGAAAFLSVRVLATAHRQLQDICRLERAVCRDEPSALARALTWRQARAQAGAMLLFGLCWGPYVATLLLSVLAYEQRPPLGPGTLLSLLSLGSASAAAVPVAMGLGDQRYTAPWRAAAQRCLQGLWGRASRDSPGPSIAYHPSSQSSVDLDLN
row,Compound,EC50 [nM]
1,"COc1cc(F)ccc1-c1ccncc1N(C)C(=O)c1cc(SCCO)cc(C(F)(F)F)c1 [Example 216, N-[4-(4-Fluoro-2-methoxy-phenyl)-pyridin-3-yl]-3-(2-hydroxy-ethylsulfanyl)-N-methyl-5-trifluoromethyl-benzamide]",38
2,"CS(=O)(=O)c1cc(C(=O)N(CC(F)(F)F)c2cnccc2-c2ccccc2Cl)cc(C(F)(F)F)c1 [Example 287, N-[4-(2-Chloro-phenyl)-pyridin-3-yl]-3-methanesulfonyl-N-(2,2,2-trifluoro-ethyl)-5-trifluoromethyl-benzamide]",539
3,"COc1cc(F)c(F)cc1-c1ccncc1N(C)C(=O)c1cc(C(F)(F)F)nc(C(F)(F)F)c1 [Example 144, N-[4-(4,5-Difluoro-2-methoxy-phenyl)-pyridin-3-yl]-N-methyl-2,6-bis-trifluoromethyl-isonicotinamide]",22
4,"Cc1cc(F)ccc1-c1ccncc1N(C)C(=O)c1cc(C(F)(F)F)cc(C(F)(F)F)c1 [Example 23, N-[4-(4-Fluoro-2-methyl-phenyl)-pyridin-3-yl]-N-methyl-3,5-bis-trifluoromethyl-benzamide]",38
5,"CN(C(=O)c1cc(C(F)(F)F)cc(C(F)(F)F)c1)c1cnccc1-c1ccccc1C#N [Example 36, N-[4-(2-Cyano-phenyl)-pyridin-3-yl]-N-methyl-3,5-bis-trifluoromethyl-benzamide]",362
6,"Cc1c(F)cccc1-c1ccncc1N(C)C(=O)c1cc(C(F)(F)F)cc(S(C)(=O)=O)c1 [Example 295, N-[4-(3-Fluoro-2-methyl-phenyl)-pyridin-3-yl]-3-methanesulfonyl-N-methyl-5-trifluoromethyl-benzamide]",445
7,"CN(C(=O)c1cc(C(F)(F)F)cc(S(C)(=O)=O)c1)c1cnccc1-c1ccccc1OC1CCC1 [Example 277, N-[4-(2-Cyclobutoxy-phenyl)-pyridin-3-yl]-3-methanesulfonyl-N-methyl-5-trifluoromethyl-benzamide]",8
8,"COc1cc(F)ccc1-c1ccncc1N(Cc1nccn1C)C(=O)c1cc(C(F)(F)F)cc(S(C)(=O)=O)c1 [Example 250, N-[4-(4-Fluoro-2-methoxy-phenyl)-pyridin-3-yl]-3-methanesulfonyl-N-(1-methyl-1H-imidazol-2-ylmethyl)-5-trifluoromethyl-benzamide]",2960
9,"CN(C(=O)c1cc(C(F)(F)F)cc(C(F)(F)F)c1)c1cnccc1-c1ccccc1CCO [Example 93, N-{4-[2-(2-Hydroxy-ethyl)-phenyl]-pyridin-3-yl}-N-methyl-3,5-bis-trifluoromethyl-benzamide]",2260
10,"COc1ncccc1-c1ccncc1N(CC(F)(F)F)C(=O)c1cc(F)cc(C(F)(F)F)c1 [Example 141, 3-Fluoro-N-(2-methoxy-[3,4′]bipyridinyl-3′-yl)-N-(2,2,2-trifluoro-ethyl)-5-trifluoromethyl-benzamide]",1660
11,"COC(=O)CCSc1cc(C(=O)N(C)c2cnccc2-c2ccc(F)cc2OC)cc(C(F)(F)F)c1 [Example 225, 3-(3-{[4-(4-Fluoro-2-methoxy-phenyl)-pyridin-3-yl]-methyl-carbamoyl}-5-trifluoromethyl-phenylsulfanyl)-propionic acid methyl ester]",241
12,"COc1cc(F)c(F)cc1-c1ccncc1N(CC(F)(F)F)C(=O)c1cc(C(F)(F)F)cc(S(=O)(=O)N(C)C)c1 [Example 140, N-[4-(4,5-Difluoro-2-methoxy-phenyl)-pyridin-3-yl]-3-dimethylsulfamoyl-N-(2,2,2-trifluoro-ethyl)-5-trifluoromethyl-benzamide]",124
13,"COc1ccc(F)c(-c2ccncc2N(C)C(=O)c2cc(C(F)(F)F)cc(S(C)(=O)=O)c2)c1F [Example 285, N-[4-(2,6-Difluoro-3-methoxy-phenyl)-pyridin-3-yl]-3-methanesulfonyl-N-methyl-5-trifluoromethyl-benzamide]",2900
14,"COc1cc(F)ccc1-c1ccncc1N(C)C(=O)c1cc(SC2COC2)cc(C(F)(F)F)c1 [Example 251, N-[4-(4-Fluoro-2-methoxy-phenyl)-pyridin-3-yl]-N-methyl-3-(oxetan-3-ylsulfanyl)-5-trifluoromethyl-benzamide]",30
15,"CN(C(=O)c1cc(C(F)(F)F)cc(C(F)(F)F)c1)c1cnccc1-c1c(F)cccc1F [Example 64, N-[4-(2,6-Difluoro-phenyl)-pyridin-3-yl]-N-methyl-3,5-bis-trifluoromethyl-benzamide]",14
16,"CCC(=O)CN(C(=O)c1cc(C(F)(F)F)nc(C(F)(F)F)c1)c1cnccc1-c1ccc(F)cc1OC [Example 203, N-[4-(4-Fluoro-2-methoxy-phenyl)-pyridin-3-yl]-N-(2-oxo-butyl)-2,6-bis-trifluoromethyl-isonicotinamide]",54
17,"CC(C)N(C(=O)c1cc(C(F)(F)F)cc(C(F)(F)F)c1)c1cnccc1-c1ccccc1Cl [Example 126, N-[4-(2-Chloro-phenyl)-pyridin-3-yl]-N-isopropyl-3,5-bis-trifluoromethyl-benzamide]",620
